Laboratory results published in patent publication US20080058332A1, “2,4,6-Trisubstituted Pyrimidines as Phosphotidylinositol (Pi) 3-Kinase Inhibitors and Their Use in the Treatment of Cancer” (priority 2004, published 2008).

Legend:
p110α Type Ia human PI3K = biological target: T1, p110α Type Ia human PI3K (Homo sapiens, UniProt P42336); assay: In vitro enzyme assay (AlphaScreen), inhibition of phosphorylation of PI(4,5)P2 by recombinant Type I PI3K; format: biochemical; conditions: DiC8-PI(4,5)P2 40 μM, ATP 4 μM, read-out: IC50 versus p110α Type Ia human PI3K, Test (a)
T1 construct: full length DNA of each of the p110α, p110β and p110δ Type Ia human PI3K p110 isoforms; 6-His; made in house
From the text: (a) In Vitro Enzyme Assay
The assay used AlphaScreen technology (Gray et al., Analytical Biochemistry, 2003, 313: 234-245) to determine the ability of test compounds to inhibit phosphorylation by recombinant Type I PI3K enzymes of the lipid PI(4,5)P2.
DNA fragments encoding human PI3K catalytic and regulatory subunits were isolated from cDNA libraries using standard molecular biology and PCR cloning techniques. The selected DNA fragments were used to generate baculovirus expression vectors. In particular, full length DNA of each of the p110α, p110β and p110δ Type Ia human PI3K p110 isoforms (EMBL Accession Nos. HSU79143, S67334, Y10055 for p110α, p110β and p110δ respectively) were sub-cloned into a pDEST10 vector (Invitrogen Limited, Fountain drive, Paisley, UK). The vector is a Gateway-adapted version of Fastbac1 containing a 6-His epitope tag. A truncated form of Type Ib human PI3K p110γ isoform corresponding to amino acid residues 144-1102 (EMBL Accession No. X8336A) and the full length human p85α regulatory subunit (EMBL Accession No. HSP13KIN) were also sub-cloned into pFastBac1 vector containing a 6-His epitope tag. The Type Ia p110 constructs were co-expressed with the p85α regulatory subunit. Following expression in the baculovirus system using standard baculovirus expression techniques, expressed proteins were purified using the His epitope tag using standard purification techniques.
DNA corresponding to amino acids 263 to 380 of human Grp1 PH domain was isolated from a cDNA library using standard molecular biology and PCR cloning techniques. […]
Biotinylated-DiC8-PI(3,4,5)P3 (50 nM; Cell Signals Inc., Catalogue No. 107), recombinant purified GST-Grp1 PH protein (2.5 nM) and AlphaScreen Anti-GST donor and acceptor beads (100 ng; Packard Bioscience Limited, Station Road, Pangbourne, Berkshire, UK, Catalogue No. 6760603M) were added and the assay plates were left for about 5 to 20 hours at ambient temperature in the dark. The resultant signals arising from laser light excitation at 680 nm were read using a Packard AlphaQuest instrument. […]

[1] = test system: MDA-MB-468 human breast adenocarcinoma cells; assay: In vitro MDA-MB-468 human breast adenocarcinoma proliferation assay; format: cell-based; conditions: 48 hours incubation, BrdU incorporation, read-out: IC50, Test (c), inhibition of MDA-MB-468 cell growth
From the text: (c) In Vitro MDA-MB-468 Human Breast Adenocarcinoma Proliferation Assay
This assay determines the ability of test compounds to inhibit cell proliferation as assessed using Cellomics Arrayscan technology. A MDA-MB-468 human breast adenocarcinoma cell line (LGC Promochem, Catalogue No. HTB-132) was routinely maintained as described in Biological Assay (b) hereinbefore.
For the proliferation assay, the cells were detached from the culture flask using Accutase and seeded into the inner 60 wells of a black Packard 96 well plate at a density of 8000 cells per well in 100 μl of complete growth media. The outer wells contained 100 μl of sterile PBS. The cells were incubated overnight at 37° C. with 5% CO2 to allow them to adhere.
On day 2, the cells were treated with test compounds and incubated for 48 hours at 37° C. with 5% CO2. […]
BrdU incorporation was detected by incubation for 1 hour at ambient temperature with mouse anti-BrdU antibody (50 μl; Caltag, Burlingame, Calif., US; Catalogue No. MD5200) that was diluted 1:40 in PBS containing 1% BSA and 0.05% Tween-20. […] Subsequently, PBS (100 μl) was added to each well and the plates were analysed using a Cellomics array scan to assess total cell number and number of BrdU positive cells.
Fluorescence dose response data obtained with each compound were analysed and the degree of inhibition of MDA-MB-468 cell growth was expressed as an IC50 value.

[2] = test system: phosphorylation of Serine 473 in Akt; assay: In vitro phospho-Ser473 Akt assay in MDA-MB-468 cells; format: cell-based; conditions: Homo sapiens, 2 hours incubation, read-out: IC50, Test (b), inhibition of phosphorylation of Serine 473 in Akt
Protocol: (b) In Vitro phospho-Ser473 Akt Assay
This assay determines the ability of test compounds to inhibit phosphorylation of Serine 473 in Akt as assessed using Acumen Explorer technology (Acumen Bioscience Limited), a plate reader that can be used to rapidly quantitate features of images generated by laser-scanning.
A MDA-MB-468 human breast adenocarcinoma cell line (LGC Promochem, Teddington, Middlesex, UK, Catalogue No. HTB-132) was routinely maintained at 37° C. with 5% CO2 up to a confluency of 70-90% in Dulbecco's modified Eagle's growth medium (DMEM; Invitrogen Limited, Paisley, UK Catalogue No. 41966-029) containing 10% heat-inactivated foetal calf serum (FCS; Sigma, Poole, Dorset, UK, Catalogue No. F0392) and 1% L-glutamine (Gibco, Catalogue No. 25030-024).
For the assay, the cells were detached from the culture flask using ‘Accutase’ (Innovative Cell Technologies Inc., San Diego, Calif., USA; Catalogue No. AT104) using standard tissue culture methods and resuspended in media to give 1.7×10^5 cells per ml. […]
All subsequent aspiration and wash steps were carried out using a Tecan 96 well plate washer (aspiration speed 10 mm/sec). […] An aliquot of PBS (50 μl) was added to each well and the plates were sealed with black plate sealers and the fluorescence signal was detected and analysed. […]

T1 sequence (P42336 whole entry, canonical isoform): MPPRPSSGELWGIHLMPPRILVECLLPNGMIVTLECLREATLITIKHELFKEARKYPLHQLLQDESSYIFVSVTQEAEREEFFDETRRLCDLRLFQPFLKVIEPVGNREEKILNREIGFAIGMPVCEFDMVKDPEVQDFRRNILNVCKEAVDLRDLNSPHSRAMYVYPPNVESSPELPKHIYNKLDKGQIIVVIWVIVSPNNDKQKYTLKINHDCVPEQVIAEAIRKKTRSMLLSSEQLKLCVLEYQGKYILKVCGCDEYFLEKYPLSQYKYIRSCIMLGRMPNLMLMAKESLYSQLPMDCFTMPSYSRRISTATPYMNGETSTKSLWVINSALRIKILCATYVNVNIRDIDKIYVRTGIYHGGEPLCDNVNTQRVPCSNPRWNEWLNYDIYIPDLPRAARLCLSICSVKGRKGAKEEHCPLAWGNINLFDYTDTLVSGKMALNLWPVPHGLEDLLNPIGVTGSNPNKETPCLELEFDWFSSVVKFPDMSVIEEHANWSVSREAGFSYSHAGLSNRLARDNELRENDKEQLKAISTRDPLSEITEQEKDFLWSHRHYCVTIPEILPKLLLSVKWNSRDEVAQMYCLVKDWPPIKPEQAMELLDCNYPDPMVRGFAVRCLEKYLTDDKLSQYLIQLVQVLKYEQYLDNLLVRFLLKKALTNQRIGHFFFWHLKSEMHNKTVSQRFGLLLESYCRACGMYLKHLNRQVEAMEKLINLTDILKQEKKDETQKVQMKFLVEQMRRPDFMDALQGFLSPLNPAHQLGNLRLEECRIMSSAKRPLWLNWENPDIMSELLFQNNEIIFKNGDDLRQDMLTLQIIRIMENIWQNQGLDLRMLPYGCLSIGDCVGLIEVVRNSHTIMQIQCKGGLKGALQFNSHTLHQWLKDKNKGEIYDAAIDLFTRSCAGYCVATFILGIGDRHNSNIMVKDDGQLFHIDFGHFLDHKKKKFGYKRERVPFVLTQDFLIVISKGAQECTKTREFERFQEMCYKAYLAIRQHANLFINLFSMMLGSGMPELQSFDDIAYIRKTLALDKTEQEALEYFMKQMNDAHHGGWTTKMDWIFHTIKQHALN
T1 sequence (P27986 whole entry partner, canonical isoform): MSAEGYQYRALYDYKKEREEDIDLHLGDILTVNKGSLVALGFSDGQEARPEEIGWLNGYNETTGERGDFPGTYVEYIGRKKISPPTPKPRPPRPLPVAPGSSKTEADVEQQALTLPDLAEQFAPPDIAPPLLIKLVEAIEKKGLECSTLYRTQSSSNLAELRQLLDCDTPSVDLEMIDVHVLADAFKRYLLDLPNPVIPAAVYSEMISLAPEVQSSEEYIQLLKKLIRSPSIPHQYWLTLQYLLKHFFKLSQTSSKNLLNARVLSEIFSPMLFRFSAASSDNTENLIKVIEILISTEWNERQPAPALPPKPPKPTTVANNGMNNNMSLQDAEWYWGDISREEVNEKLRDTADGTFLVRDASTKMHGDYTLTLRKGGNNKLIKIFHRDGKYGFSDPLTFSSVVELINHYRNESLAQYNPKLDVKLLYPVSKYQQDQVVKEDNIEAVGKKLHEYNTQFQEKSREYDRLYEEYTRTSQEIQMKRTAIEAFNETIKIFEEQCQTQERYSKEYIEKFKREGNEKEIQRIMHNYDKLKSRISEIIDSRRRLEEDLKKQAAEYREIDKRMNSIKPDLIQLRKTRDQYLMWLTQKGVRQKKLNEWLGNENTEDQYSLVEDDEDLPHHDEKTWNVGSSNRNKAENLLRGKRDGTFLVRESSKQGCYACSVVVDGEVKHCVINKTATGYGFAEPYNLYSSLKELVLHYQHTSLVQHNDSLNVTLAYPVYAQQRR

IC50 (p110α Type Ia human PI3K) [µM] | IC50 [1] [µM] | IC50 [2] [µM] | Structure (SMILES)
~1 | – | – | O=C(Nc1cccc(-c2nc(-c3cccc(O)c3)cc(N3CCOCC3)n2)c1)C1CCNCC1 [Example 4(3), 4-(3-hydroxyphenyl)-6-morpholino-2-(3-piperidin-4-ylcarbonylaminophenyl)pyrimidine]
~0.7 | ~10 | ~5.1 | N[C@H]1CCC[C@@H](CC(=O)Nc2cccc(-c3nc(-c4cccc(CO)c4)cc(N4CCOCC4)n3)c2)C1 [Example 6(33), 2-(3-{2-[(1R,3S)-3-aminocyclohex-1-yl]acetamido]phenyl}-4-(3-hydroxymethylphenyl)-6-morpholinopyrimidine]
~1 | ~5 | ~1.8 | NCc1cccc(C(=O)Nc2cccc(-c3nc(-c4cccc(CO)c4)cc(N4CCOCC4)n3)c2)c1 [Example 6(48), 2-[3-(3-aminomethylbenzamido)phenyl]-4-(3-hydroxymethylphenyl)-6-morpholinopyrimidine]
